For 22 compounds, EC50 results are on record in patent US8030354B2, “Substituted biphenyl GPR40 modulators” (Amgen Inc., priority 2007, dated 2011).

A value given as a limit tells only on which side of the number the result lay.

The target in experiment [1] is T1, GPR40 (Homo sapiens, UniProt O14842). Nature of the experiment: Inositol phosphate accumulation assay (A9_GPR40 cells). Format: cell-based. Set-up: expressed in transfected cells; host or cells: CHO cells stably transfected with GPR40 and aequorin. The settings on record: inositol phosphate assay, A9_GPR40 cells, 1 hour; read-out: IP3 EC50. As to the method:
Briefly, the Aequorin assays were performed on doubly stable CHO cells expressing GPR40 and Aequorin DNA. […] The luminescence was recorded over a period of 20 seconds with a Microlumat luminometer (Berthold). […] The inositol phosphate assay was performed on an A9 cell line stably transfected with GPR40 (A9_GPR40). The cells were incubated with different concentrations of compounds and [^3H] inositol accumulation was measured after 1 hour.
An A9 cell line stably transfected with GPR40 (A9_GPR40) was used in IP accumulation assays. A9_GPR40 cells were plated in 96-well plates containing 20,000 cells/well in DMEM containing 10% FBS. After the cells attached to the well surface, the media was replaced with inositol free DMEM containing 10% dialyzed FBS and 1 μCi, mL ^3H-inositol and incubated for 16 hours. Compounds were diluted in HBSS/10 mM LiCl containing a desired amount of HSA and added directly to cells. Following 1 hour incubation at 37° C., the media was replaced with 100 μL of 20 mM formic acid to quench the reaction. 50 μL of the extract was then added to 100 μL of SPA beads, incubated overnight, and measured on a TopCount the following day.

Experiment [2] concerns the target T1, GPR40. Nature of the experiment: Cell-based aequorin assay (CHO cells stably expressing GPR40 and aequorin). Details: expressed in transfected cells; host or cells: CHO cells stably transfected with GPR40 and aequorin. The note with it: activation of human GPR40, CHO cells, 0.01% HSA. The procedure, abridged: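 CHO cells stably co-expressing GPR40 and aequorin, loaded with coelenterazine (1 ug/mL, 2 h, room temperature) in H/HBSS with 20 mM Hepes and 0.01% fatty acid-free HSA. Serially diluted compounds added; luminescence recorded over 20 s. EC50 from dose-response of maximum relative light units.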

T1 sequence (O14842 whole entry): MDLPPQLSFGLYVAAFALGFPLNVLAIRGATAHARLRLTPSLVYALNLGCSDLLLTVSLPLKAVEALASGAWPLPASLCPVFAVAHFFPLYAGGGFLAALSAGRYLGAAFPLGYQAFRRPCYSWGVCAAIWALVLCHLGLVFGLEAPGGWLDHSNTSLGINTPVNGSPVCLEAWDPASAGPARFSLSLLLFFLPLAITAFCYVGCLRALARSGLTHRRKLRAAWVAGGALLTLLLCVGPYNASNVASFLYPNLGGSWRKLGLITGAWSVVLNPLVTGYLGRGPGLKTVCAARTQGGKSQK

For the compound `COc1ccc(F)c(-c2ccc(COc3cccc(C(CC(=O)O)CC4CC4)c3F)cc2C2CCCC2(C)C)c1` (single isomer, unassigned) [Example 84.1], the EC50 (usually the concentration giving half of the maximal effect) at GPR40 [1] is < 10 nM; on GPR40 [2], 100 to 1000 nM.
Take `COc1ccc(F)c(-c2ccc(COc3cccc([C@@H](CC(=O)O)C4CC4)c3)cc2[C@H](F)C(C)(C)C)c1` (single isomer, unassigned) [Example 66.31]: the EC50 at GPR40 [1] lay within 10 to 100 nM; at GPR40 [2], 100 to 1000 nM.
For the compound `COc1ccc(F)c(-c2c(F)cc(COc3cccc([C@@H](CC(=O)O)C4CC4)c3F)cc2[C@H]2CCCC2(C)C)c1` (single isomer, unassigned) [Example 83.20], the EC50 is < 10 nM at GPR40 [1] and 100 to 1000 nM at GPR40 [2].
As to `CCCCOc1cc(COc2cccc(C(CC(=O)O)C3CCC3)c2)ccc1-c1cc(OC)ccc1F` (single isomer, unassigned) [Example 70.4, (3S)-3-(3-(((2-(Butyloxy)-2′-fluoro-5′-(methyloxy)-1,1′-biphenyl-4-yl)methyl)oxy)phenyl)-3-cyclobutylpropanoic acid or (3R)-3-(3-(((2-(butyloxy)-2′-fluoro-5′-(methyloxy)-1,1′-biphenyl-4-yl)methyl)oxy)phenyl)-3-cyclobutylpropanoic acid], the EC50 at GPR40 [1] and at GPR40 [2] was 100 to 1000 nM in each case.
With `COc1cc(-c2ccc(COc3cccc(C(CC(=O)O)C4CC4)c3)cc2C2=CCCC2(C)C)ccn1` (single isomer, unassigned) [Example 66.66, (3S)-3-(3-(3-(5,5-Dimethylcyclopent-1-enyl)-4-(2-methoxypyridin-4-yl)benzyloxy)phenyl)-3-cyclopropylpropanoic acid or (3R)-3-(3-(3-(5,5-dimethylcyclopent-1-enyl)-4-(2-methoxypyridin-4-yl)benzyloxy)phenyl)-3-cyclopropylpropanoic acid], the EC50 at GPR40 [1] is 10 to 100 nM; at GPR40 [2], 100 to 1000 nM.
Taken in the same sequence, the figures for `COc1ccc(F)c(-c2ccc(COc3cccc(C(CC(=O)O)CC4CC4)c3F)cc2C(OC)C(C)(C)C)c1` (single isomer, unassigned) [Example 84.2] were < 10 nM and 100 to 1000 nM.
Taken in the same sequence, the figures for `CCC(CC(=O)O)c1cccc(OCc2ccc(-c3cc(OC)ncc3F)c(C(OC)C(C)(C)C)c2)c1F` (single isomer, unassigned) [Example 77.10] were < 10 nM and 100 to 1000 nM.
Consider `COc1ccc(F)c(-c2ccc(COc3cccc(C(C)CC(=O)O)c3)cc2C2CCC(C)(C)CC2)c1` (single isomer, unassigned) [Example 64.7, (3R)-3-(3-(((2-(4,4-Dimethylcyclohexyl)-2′-fluoro-5′-(methyloxy)-1,1′-biphenyl-4-yl)methyl)oxy)phenyl)butanoic acid or (3S)-3-(3-(((2-(4,4-dimethylcyclohexyl)-2′-fluoro-5′-(methyloxy)-1,1′-biphenyl-4-yl)methyl)oxy)phenyl)butanoic acid], for which the half-maximal effective concentration (EC50) is 10 to 100 nM at GPR40 [1] and 100 to 1000 nM at GPR40 [2].
As for `COc1ccc(F)c(-c2cc(F)c(COc3cccc([C@@H](CC(=O)O)C4CC4)c3)cc2C2=CCCC2(C)C)c1` (single isomer, unassigned) [Example 66.43, (3S)-3-Cyclopropyl-3-(3-(((2-(5,5-dimethyl-1-cyclopenten-1-yl)-2′,5-difluoro-5′-(methyloxy)-1,1′-biphenyl-4-yl)methyl)oxy)phenyl)propanoic acid or (3R)-3-cyclopropyl-3-(3-(((2-(5,5-dimethyl-1-cyclopenten-1-yl)-2′,5-difluoro-5′-(methyloxy)-1,1′-biphenyl-4-yl)methyl)oxy)phenyl)propanoic acid], the EC50 at GPR40 [1] was < 10 nM; at GPR40 [2] it was 100 to 1000 nM.
Regarding `CCc1cccc(-c2ccc(COc3cccc([C@@H](CC(=O)O)C4CC4)c3F)cc2[C@H]2CCCC2(C)C)c1` (single isomer, unassigned) [Example 83.28], the EC50 on GPR40 [1] is 10 to 100 nM; at GPR40 [2], 100 to 1000 nM.
Regarding `COc1ccc(F)c(-c2cc(F)c(COc3cccc([C@@H](CC(=O)O)C4CC4)c3)cc2[C@H]2CCCC2(C)C)c1` (single isomer, unassigned) [Example 66.44], the results for the EC50 at GPR40 [1] and at GPR40 [2] were < 10 nM and 10 to 100 nM, respectively.
`C=C(C)[C@H](CC(=O)O)c1cccc(OCc2ccc(-c3cc(OC)ccc3F)c(OCCCC)c2)c1` (single isomer, unassigned) [Example 50, (3S)-3-(3-(((2-(Butyloxy)-2′-fluoro-5′-(methyloxy)-1,1′-biphenyl-4-yl)methyl)oxy)phenyl)-4-methyl-4-pentenoic acid or (3R)-3-(3-(((2-(butyloxy)-2′-fluoro-5′-(methyloxy)-1,1′-biphenyl-4-yl)methyl)oxy)phenyl)-4-methyl-4-pentenoic acid]: the EC50 at GPR40 [1] and on GPR40 [2] was 1000 to 10000 nM each time.
Take `COc1ccc(F)c(-c2ccc(COc3cccc(C(CC(=O)O)C4CC4)c3F)cc2CN2CCCCCC2)c1` (single isomer, unassigned) [Example 83.29, (3S)-3-(3-(((2-(1-Azepanylmethyl)-2′-fluoro-5′-(methyloxy)-1,1′-biphenyl-4-yl)methyl)oxy)-2-fluorophenyl)-3-cyclopropylpropanoic acid or (3R)-3-(3-(((2-(1-Azepanylmethyl)-2′-fluoro-5′-(methyloxy)-1,1′-biphenyl-4-yl)methyl)oxy)-2-fluorophenyl)-3-cyclopropylpropanoic acid]: the EC50 was in the range of 100 to 1000 nM on GPR40 [1] and 1000 to 10000 nM on GPR40 [2].
Turning to `CCCC(CC(=O)O)c1cccc(OCc2ccc(-c3cc(OC)ccc3F)c(OC3CCCCCC3)c2)c1` (single isomer, unassigned) [Example 67.2, (3R)-3-(3-(((2-(Cycloheptyloxy)-2′-fluoro-5′-(methyloxy)-1,1′-biphenyl-4-yl)methyl)oxy)phenyl)hexanoic acid or (3S)-3-(3-(((2-(cycloheptyloxy)-2′-fluoro-5′-(methyloxy)-1,1′-biphenyl-4-yl)methyl)oxy)phenyl)hexanoic acid], the EC50 at GPR40 [1] and at GPR40 [2] was 100 to 1000 nM in each case.
For the compound `COc1ccc(F)c(-c2ccc(COc3cccc(C(CC(=O)O)CC4CC4)c3)cc2C(OC)C(C)(C)C)c1` (single isomer, unassigned) [Example 69.35], the EC50 was < 10 nM on GPR40 [1] and 10 to 100 nM on GPR40 [2].
For `CCC(CC(=O)O)c1cc(F)cc(OCc2ccc(-c3cc(OC)ccc3F)c(C3=CCCC3(C)C)c2)c1` (single isomer, unassigned) [Example 88.2, (3R)-3-(3-(((2-(5,5-Dimethyl-1-cyclopenten-1-yl)-2′-fluoro-5′-(methyloxy)-1,1′-biphenyl-4-yl)methyl)oxy)-5-fluorophenyl)pentanoic acid or (3S)-3-(3-(((2-(5,5-dimethyl-1-cyclopenten-1-yl)-2′-fluoro-5′-(methyloxy)-1,1′-biphenyl-4-yl)methyl)oxy)-5-fluorophenyl)pentanoic acid], the EC50 on GPR40 [1] lay in the range of 10 to 100 nM; on GPR40 [2], 100 to 1000 nM.
The like results for `COc1ccc(F)c(-c2ccc(COc3cccc(C(CC(=O)O)C4CC4)c3)cc2C(C)C(C)(C)C)c1` (single isomer, unassigned) [Example 66.19] were, in that order, < 10 nM and 10 to 100 nM.
Take `CCC(CC(=O)O)c1cc(F)cc(OCc2ccc(-c3cc(OC)ccc3F)c(C3CCCC3(C)C)c2)c1` (single isomer, unassigned) [Example 88.1]: the EC50 at GPR40 [1] was < 10 nM; at GPR40 [2], 10 to 100 nM.
Taken in the same sequence, the figures for `COCC(C)(C)C(OC)c1cc(COc2cccc(C(CC(=O)O)C3CC3)c2)ccc1-c1cc(OC)ccc1F` (single isomer, unassigned) [Example 66.42, (S)-3-Cyclopropyl-3-{3-[2-(1,3-dimethoxy-2,2-dimethyl-propyl)-2′-fluoro-5′-methoxy-biphenyl-4-ylmethoxy]-phenyl}-propionic acid or (S)-3-Cyclopropyl-3-{3-[2-(1,3-dimethoxy-2,2-dimethyl-propyl)-2′-fluoro-5′-methoxy-biphenyl-4-ylmethoxy]-phenyl}-propionic acid] were 10 to 100 nM and 100 to 1000 nM.
Take `COc1cc(-c2ccc(COc3cccc([C@@H](CC(=O)O)C4CC4)c3F)cc2[C@@H]2CCCC2(C)C)c(F)cn1` (single isomer, unassigned) [Example 83.5]: the EC50 on GPR40 [1] was 10 to 100 nM; at GPR40 [2] it was 100 to 1000 nM.
The like results for `COc1ccc(F)c(-c2cc(F)c(COc3cccc([C@@H](CC(=O)O)C4CC4)c3F)cc2[C@H]2CCCC2(C)C)c1` (single isomer, unassigned) [Example 83.2] were, in that order, < 10 nM and 10 to 100 nM.
With `COc1ccc(F)c(-c2ccc(COc3cccc([C@@H](CC(=O)O)[C@@H]4C[C@H]4C)c3)cc2C(C)(C)C)c1` (single isomer, unassigned) [Example 93.1], the EC50 on GPR40 [1] lay in the range of 10 to 100 nM; on GPR40 [2], 100 to 1000 nM.
